Measurements reported in patent publication US20240374590A1, “COMPOSITIONS AND METHODS FOR TREATING CANCER” (A2A PHARMACEUTICALS, INC., priority 2021, published 2024).
pIC50: −log10 of the molar value.

Columns and labels:
[1] = test system: JIMT-1 human breast cancer cell line; assay: Cell viability assay (SRB) in JIMT-1; assay type: cell-based; conditions: 72 hours after treatment, read-out: JIMT1 IC50
Method: (§1) Human colon carcinoma cell line HCT-116 was a kind gift from Igor Ronninson from University of South Caroli, Columbia, USA. Human breast cancer cell line, JIMT-1 was kindly provided by Ali Osmay Güre from Bilkent University, Ankara, Turkey. Cells were cultured in Dulbecco's modified Eagle's medium (Lonza, NJ, USA), supplemented with 10% fetal bovine serum (FBS, Lonza), 1% non-essential amino acid (NEAA), 2 mM L-glutamine (Sigma Aldrich, MO, USA) and 50 U/ml penicillin/streptomycin (P/S). HCT-116 cells were cultured in McCoy's 5A (modified) (Gibco) medium supplemented with FBS, NEAA, L-glutamine and P/S. All cell lines were tested regularly using MycoAlert Mycoplasma Detection Kit (Lonza). The cumulative length of the cells between thawing and use in the experiments was less than 20 passages.
(§2) Newly synthesized molecules were dissolved in 100% DMSO to yield a stock concentration of 10 mM. For cell viability assay, JIMT-1 (3×10^3 cells/well) and HCT-116 (4×10^3), cells were seeded into 96-well plates, and 24 hours after cell seeding inhibitor treatments were performed at different concentrations. Cell viability was measured 72 hours after treatment with Sulforhodamine B (SRB, Sigma Aldrich) assay as recommended by the manufacturer.

[2] = test system: HCT-116 human colon carcinoma cell line; assay: Cell viability assay (SRB) in HCT-116; assay type: cell-based; conditions: 72 hours after treatment, read-out: HCT116 IC50
Method: as §1, §2

Row | pIC50 [1] | pIC50 [2] | SMILES
1 |  | 5.33 | C[C@@H]1CN(c2nccc(Nc3cc(-c4ccc(S(C)(=O)=O)cc4)n[nH]3)n2)C[C@H](C)O1 [Compound 206, 2-((2R,6S)-2,6-dimethylmorpholino)-N-(3-(4-(methylsulfonyl)phenyl)-1H-pyrazol-5-yl)pyrimidin-4-amine]
2 |  | 6.97 | C[C@@H]1CN(c2nccc(Nc3cc(-c4ccc(N5CCCC5)cc4)n[nH]3)n2)C[C@H](C)O1 [Compound 209, 2-((2R,6S)-2,6-dimethylmorpholino)-N-(3-(4-(pyrrolidin-1-yl)phenyl)-1H-pyrazol-5-yl)pyrimidin-4-amine]
3 | 6.67 |  | COc1ccc(-c2cc(Nc3nc(N4C[C@@H](C)O[C@@H](C)C4)ncc3C)[nH]n2)c(F)c1 [Compound 283, 2-((2R,6S)-2,6-dimethylmorpholino)-N-(3-(2-fluoro-4-methoxyphenyl)-1H-pyrazol-5-yl)-5-methylpyrimidin-4-amine]
4 | 7.47 |  | COc1ccc(-c2cc(Nc3cccc(N4CCOCC4)n3)[nH]n2)c(F)c1 [Compound 298, N-(3-(2-fluoro-4-methoxyphenyl)-1H-pyrazol-5-yl)-6-morpholinopyridin-2-amine]
5 | 7.28 |  | C[C@@H]1CN(c2cc(Nc3cc(-c4ccc(OC(F)F)cc4)n[nH]3)ccn2)C[C@H](C)O1 [Compound 308, N-(3-(4-(difluoromethoxy)phenyl)-1H-pyrazol-5-yl)-2-((2R,6S)-2,6-dimethylmorpholino)pyridin-4-amine]

The next lines start with the compound.

Row | SMILES | pIC50 [1] | pIC50 [2]
6 | COc1ccc(-c2cc(Nc3ccnc(N4CCOCC4)n3)[nH]n2)cc1 [Compound 5, N-(3-(4-methoxyphenyl)-1H-pyrazol-5-yl)-2-morpholinopyrimidin-4-amine] | 8.30 | 7.33
7 | COc1ccc(-c2cc(Nc3ccnc(N4CCOCC4)n3)[nH]n2)c(Cl)c1 [Compound 27, N-(3-(2-chloro-4-methoxyphenyl)-1H-pyrazol-5-yl)-2-morpholinopyrimidin-4-amine] | 6.44 | 6.49
8 | COc1ccc(-c2cc(Nc3ccnc(N4CCOCC4)n3)[nH]n2)c(F)c1 [Compound 56, N-(3-(2-fluoro-4-methoxyphenyl)-1H-pyrazol-5-yl)-2-morpholinopyrimidin-4-amine] | 7.64 | 7.44
9 | COc1ccc(-c2cc(Nc3ccnc(N4C[C@@H](C)O[C@@H](C)C4)n3)[nH]n2)cc1 [Compound 59b, 2-((2R,6S)-2,6-dimethylmorpholino)-N-(3-(4-methoxyphenyl)-1H-pyrazol-5-yl)pyrimidin-4-amine] | 7.77 | 8.52
10 | COc1ccc(-c2cc(Nc3ccnc(N4CCC(C)CC4)n3)[nH]n2)cc1 [Compound 69, N-(3-(4-methoxyphenyl)-1H-pyrazol-5-yl)-2-(4-methylpiperidin-1-yl)pyrimidin-4-amine] | 7.60 | 8.30
11 | COc1ccc(-c2csc(Nc3ccnc(N4CCOCC4)n3)n2)cc1 [Compound 174, 4-(4-methoxyphenyl)-N-(2-morpholinopyrimidin-4-yl)thiazol-2-amine] | ≤ 5.00 | 
12 | COc1ccc(-c2coc(Nc3ccnc(N4CCOCC4)n3)n2)cc1 [Compound 177, 4-(4-methoxyphenyl)-N-(2-morpholinopyrimidin-4-yl)oxazol-2-amine] | ≤ 5.00 | 
13 | C[C@@H]1CN(c2nccc(Nc3cc(-c4ccc(Cl)cc4)n[nH]3)n2)C[C@H](C)O1 [Compound 197, N-(3-(4-chlorophenyl)-1H-pyrazol-5-yl)-2-((2R,6S)-2,6-dimethylmorpholino)pyrimidin-4-amine] |  | 6.59
14 | Cc1ccc(-c2cc(Nc3ccnc(N4C[C@@H](C)O[C@@H](C)C4)n3)[nH]n2)cc1 [Compound 198, 2-((2R,6S)-2,6-dimethylmorpholino)-N-(3-(p-tolyl)-1H-pyrazol-5-yl)pyrimidin-4-amine] |  | 7.10
15 | CCc1ccc(-c2cc(Nc3ccnc(N4C[C@@H](C)O[C@@H](C)C4)n3)[nH]n2)cc1 [Compound 199, 2-((2R,6S)-2,6-dimethylmorpholino)-N-(3-(4-ethylphenyl)-1H-pyrazol-5-yl)pyrimidin-4-amine] |  | 7.05
